Experiment [1] addresses Calcium/calmodulin-dependent protein kinase type 1 (Homo sapiens) (UniProt Q14012). Put plainly: Inhibition of CAMK1 (unknown origin) assessed as residual activity at 1000 nM by KINOMEscan analysis relative to control.
Experiment [2] concerns the target MAP kinase-interacting serine/threonine-protein kinase 2 (Homo sapiens) (UniProt Q9HBH9). The experiment can be described thus: Inhibition of MKNK2 (unknown origin) assessed as residual activity at 1000 nM by KINOMEscan analysis relative to control.
For experiment [3], the target named is T1, Aurora kinase A (Homo sapiens) (UniProt O14965).
T1 sequence (whole entry): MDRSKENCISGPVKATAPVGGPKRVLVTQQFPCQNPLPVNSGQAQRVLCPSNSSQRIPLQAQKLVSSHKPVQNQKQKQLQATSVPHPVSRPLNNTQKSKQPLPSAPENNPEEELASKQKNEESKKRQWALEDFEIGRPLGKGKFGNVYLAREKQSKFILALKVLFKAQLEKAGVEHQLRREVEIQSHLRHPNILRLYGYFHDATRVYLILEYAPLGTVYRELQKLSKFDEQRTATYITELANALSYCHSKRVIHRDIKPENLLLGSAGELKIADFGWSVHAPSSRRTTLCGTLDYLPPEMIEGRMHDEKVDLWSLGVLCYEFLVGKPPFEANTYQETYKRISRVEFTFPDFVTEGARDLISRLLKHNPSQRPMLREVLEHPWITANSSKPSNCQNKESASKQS
Put plainly: Inhibition of AURKA (unknown origin) assessed as residual activity at 1000 nM by KINOMEscan analysis relative to control.

The target of experiment [4] is CDK4/Cyclin D3 (Homo sapiens) (UniProt P11802+P30281). Put plainly: Inhibition of CDK4-cyclin D3 (unknown origin) assessed as residual activity at 1000 nM by KINOMEscan analysis relative to control. The format is protein-complex assay.
Experiment [5] deals with Phosphatidylinositol 4-kinase beta (Homo sapiens) (UniProt Q9UBF8). Put plainly: Inhibition of PIK4CB (unknown origin) assessed as residual activity at 1000 nM by KINOMEscan analysis relative to control.
Chain of Phosphatidylinositol 4-kinase beta (Homo sapiens) (Q9UBF8 2-816 limits assumed): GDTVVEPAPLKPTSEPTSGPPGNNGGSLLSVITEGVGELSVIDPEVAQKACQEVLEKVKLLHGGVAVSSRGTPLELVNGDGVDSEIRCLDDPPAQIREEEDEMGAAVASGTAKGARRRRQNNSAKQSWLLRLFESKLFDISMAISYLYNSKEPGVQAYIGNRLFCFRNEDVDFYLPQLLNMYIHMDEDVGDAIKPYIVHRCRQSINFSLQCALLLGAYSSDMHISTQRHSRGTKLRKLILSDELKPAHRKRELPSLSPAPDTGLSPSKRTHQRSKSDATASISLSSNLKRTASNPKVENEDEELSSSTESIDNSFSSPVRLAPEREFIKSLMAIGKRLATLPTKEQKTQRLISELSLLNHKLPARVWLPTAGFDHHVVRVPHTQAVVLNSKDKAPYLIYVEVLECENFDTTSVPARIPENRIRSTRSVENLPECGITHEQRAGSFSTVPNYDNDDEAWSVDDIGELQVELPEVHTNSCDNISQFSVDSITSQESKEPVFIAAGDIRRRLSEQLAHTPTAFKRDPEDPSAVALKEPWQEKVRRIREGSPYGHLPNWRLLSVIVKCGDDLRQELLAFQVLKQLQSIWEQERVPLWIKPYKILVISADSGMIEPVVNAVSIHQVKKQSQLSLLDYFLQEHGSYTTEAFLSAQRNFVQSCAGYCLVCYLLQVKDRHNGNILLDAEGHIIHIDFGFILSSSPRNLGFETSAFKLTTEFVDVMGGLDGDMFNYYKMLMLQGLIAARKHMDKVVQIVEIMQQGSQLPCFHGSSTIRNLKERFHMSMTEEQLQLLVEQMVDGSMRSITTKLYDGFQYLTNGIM
The subject of experiment [6] is Phosphatidylinositol 4,5-bisphosphate 3-kinase catalytic subunit alpha isoform (Homo sapiens), P42336 [E542K]. The experiment can be described thus: Inhibition of PIK3CA E542K mutant (unknown origin) assessed as residual activity at 1000 nM by KINOMEscan analysis relative to control.
Experiment [7] deals with T2, Activin receptor type-1B (Homo sapiens) (UniProt P36896).
T2 sequence (whole entry): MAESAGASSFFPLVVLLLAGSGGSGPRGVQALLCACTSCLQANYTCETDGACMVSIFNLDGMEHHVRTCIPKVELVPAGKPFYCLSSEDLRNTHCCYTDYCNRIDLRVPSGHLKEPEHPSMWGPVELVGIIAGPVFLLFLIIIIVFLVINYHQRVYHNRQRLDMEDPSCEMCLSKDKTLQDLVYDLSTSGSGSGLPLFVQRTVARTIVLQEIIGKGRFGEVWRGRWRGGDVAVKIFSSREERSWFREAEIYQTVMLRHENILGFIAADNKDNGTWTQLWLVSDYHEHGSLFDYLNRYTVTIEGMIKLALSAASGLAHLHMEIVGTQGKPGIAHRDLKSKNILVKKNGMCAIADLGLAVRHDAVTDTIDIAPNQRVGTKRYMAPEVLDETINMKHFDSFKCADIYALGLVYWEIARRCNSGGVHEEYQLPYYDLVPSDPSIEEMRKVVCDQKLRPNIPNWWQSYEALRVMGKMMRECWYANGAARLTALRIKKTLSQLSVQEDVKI
Put plainly: Inhibition of ACVR1B (unknown origin) assessed as residual activity at 1000 nM by KINOMEscan analysis relative to control.

The target of experiment [8] is Mitotic checkpoint serine/threonine-protein kinase BUB1 (Homo sapiens) (UniProt O43683). Put plainly: Inhibition of BUB1 (unknown origin) assessed as residual activity at 1000 nM by KINOMEscan analysis relative to control.
Chain of Mitotic checkpoint serine/threonine-protein kinase BUB1 (Homo sapiens) (O43683 whole entry, looked up): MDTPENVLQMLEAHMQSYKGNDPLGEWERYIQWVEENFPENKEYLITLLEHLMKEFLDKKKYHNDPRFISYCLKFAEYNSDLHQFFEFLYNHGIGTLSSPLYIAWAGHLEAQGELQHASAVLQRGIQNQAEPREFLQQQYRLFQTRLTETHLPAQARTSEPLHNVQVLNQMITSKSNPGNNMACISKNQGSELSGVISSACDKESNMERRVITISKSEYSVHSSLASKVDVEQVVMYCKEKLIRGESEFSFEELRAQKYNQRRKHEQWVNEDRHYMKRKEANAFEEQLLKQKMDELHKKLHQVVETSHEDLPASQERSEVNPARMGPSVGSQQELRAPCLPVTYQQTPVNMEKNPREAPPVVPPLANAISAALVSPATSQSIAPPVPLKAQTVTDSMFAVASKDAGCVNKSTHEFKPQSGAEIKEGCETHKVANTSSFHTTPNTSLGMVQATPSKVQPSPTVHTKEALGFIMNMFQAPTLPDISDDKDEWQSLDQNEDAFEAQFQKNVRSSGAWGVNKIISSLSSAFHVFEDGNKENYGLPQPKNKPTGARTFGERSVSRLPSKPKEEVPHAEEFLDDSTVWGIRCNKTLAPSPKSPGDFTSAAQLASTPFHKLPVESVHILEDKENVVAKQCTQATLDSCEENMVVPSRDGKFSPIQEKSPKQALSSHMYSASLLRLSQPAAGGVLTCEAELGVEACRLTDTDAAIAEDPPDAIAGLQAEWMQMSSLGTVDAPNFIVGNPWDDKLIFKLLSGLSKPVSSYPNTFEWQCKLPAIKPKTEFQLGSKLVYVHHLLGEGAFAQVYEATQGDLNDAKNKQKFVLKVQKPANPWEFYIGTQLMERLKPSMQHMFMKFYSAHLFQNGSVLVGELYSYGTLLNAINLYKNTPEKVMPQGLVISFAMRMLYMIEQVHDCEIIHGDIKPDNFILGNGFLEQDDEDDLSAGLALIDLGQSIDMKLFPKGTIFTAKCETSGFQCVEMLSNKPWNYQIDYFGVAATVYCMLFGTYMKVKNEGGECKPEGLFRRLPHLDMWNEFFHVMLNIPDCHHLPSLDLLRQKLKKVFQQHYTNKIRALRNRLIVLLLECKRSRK
In experiment [9] the target is Cyclin-dependent kinase 3 (Homo sapiens) (UniProt Q00526). The experiment can be described thus: Inhibition of CDK3 (unknown origin) assessed as residual activity at 1000 nM by KINOMEscan analysis relative to control.
Chain of Cyclin-dependent kinase 3 (Homo sapiens) (Q00526 whole entry, looked up): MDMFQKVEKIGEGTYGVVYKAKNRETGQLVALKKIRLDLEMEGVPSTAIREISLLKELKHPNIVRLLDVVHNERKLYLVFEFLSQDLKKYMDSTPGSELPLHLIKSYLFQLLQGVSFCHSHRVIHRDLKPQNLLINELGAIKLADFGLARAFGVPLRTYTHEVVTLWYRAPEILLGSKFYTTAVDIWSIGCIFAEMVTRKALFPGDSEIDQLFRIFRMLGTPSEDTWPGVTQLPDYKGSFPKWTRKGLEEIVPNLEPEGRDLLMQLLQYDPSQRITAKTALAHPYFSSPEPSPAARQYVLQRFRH
For experiment [10], the target named is T3, Ephrin type-B receptor 4 (Homo sapiens) (UniProt P54760).
T3 sequence (whole entry): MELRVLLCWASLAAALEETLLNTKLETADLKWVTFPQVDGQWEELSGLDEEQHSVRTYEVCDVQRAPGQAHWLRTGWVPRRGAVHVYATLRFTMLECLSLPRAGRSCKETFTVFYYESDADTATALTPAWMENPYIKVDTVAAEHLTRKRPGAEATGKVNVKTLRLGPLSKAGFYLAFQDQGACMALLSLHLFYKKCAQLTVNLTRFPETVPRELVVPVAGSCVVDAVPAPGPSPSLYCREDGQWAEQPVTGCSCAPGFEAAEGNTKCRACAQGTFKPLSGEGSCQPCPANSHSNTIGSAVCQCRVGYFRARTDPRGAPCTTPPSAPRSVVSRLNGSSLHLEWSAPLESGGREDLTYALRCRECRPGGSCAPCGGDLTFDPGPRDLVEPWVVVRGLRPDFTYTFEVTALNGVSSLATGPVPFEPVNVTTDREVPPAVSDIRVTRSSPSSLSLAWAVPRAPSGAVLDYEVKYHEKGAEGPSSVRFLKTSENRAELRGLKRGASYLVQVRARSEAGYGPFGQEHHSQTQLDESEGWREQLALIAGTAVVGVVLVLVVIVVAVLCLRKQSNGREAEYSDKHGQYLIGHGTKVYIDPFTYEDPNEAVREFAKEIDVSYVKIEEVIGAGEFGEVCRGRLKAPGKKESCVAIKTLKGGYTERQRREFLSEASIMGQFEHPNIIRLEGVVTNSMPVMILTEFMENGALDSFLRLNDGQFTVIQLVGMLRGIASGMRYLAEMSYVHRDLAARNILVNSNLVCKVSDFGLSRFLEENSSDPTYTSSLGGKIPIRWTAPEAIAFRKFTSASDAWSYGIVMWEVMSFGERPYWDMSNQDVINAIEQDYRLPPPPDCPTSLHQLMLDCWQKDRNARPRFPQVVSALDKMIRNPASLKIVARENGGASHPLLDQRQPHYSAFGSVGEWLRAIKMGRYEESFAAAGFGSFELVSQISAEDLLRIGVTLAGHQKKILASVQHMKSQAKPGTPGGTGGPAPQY
The experiment can be described thus: Inhibition of EPHB4 (unknown origin) assessed as residual activity at 1000 nM by KINOMEscan analysis relative to control.

For experiment [11], the target named is Epidermal growth factor receptor (Homo sapiens, UniProt P00533). The experiment can be described thus: Inhibition of EGFR (unknown origin) assessed as residual activity at 1000 nM by KINOMEscan analysis relative to control.
Experiment [12] has as its system Phosphatidylinositol 4,5-bisphosphate 3-kinase catalytic subunit alpha isoform (Homo sapiens), P42336 [E545A]. The experiment can be described thus: Inhibition of PIK3CA E545A mutant (unknown origin) assessed as residual activity at 1000 nM by KINOMEscan analysis relative to control.
Experiment [13] deals with Dual specificity tyrosine-phosphorylation-regulated kinase 1B (Homo sapiens) (UniProt Q9Y463). The experiment can be described thus: Inhibition of DYRK1B (unknown origin) assessed as residual activity at 1000 nM by KINOMEscan analysis relative to control.
Chain of Dual specificity tyrosine-phosphorylation-regulated kinase 1B (Homo sapiens) (Q9Y463 whole entry, looked up): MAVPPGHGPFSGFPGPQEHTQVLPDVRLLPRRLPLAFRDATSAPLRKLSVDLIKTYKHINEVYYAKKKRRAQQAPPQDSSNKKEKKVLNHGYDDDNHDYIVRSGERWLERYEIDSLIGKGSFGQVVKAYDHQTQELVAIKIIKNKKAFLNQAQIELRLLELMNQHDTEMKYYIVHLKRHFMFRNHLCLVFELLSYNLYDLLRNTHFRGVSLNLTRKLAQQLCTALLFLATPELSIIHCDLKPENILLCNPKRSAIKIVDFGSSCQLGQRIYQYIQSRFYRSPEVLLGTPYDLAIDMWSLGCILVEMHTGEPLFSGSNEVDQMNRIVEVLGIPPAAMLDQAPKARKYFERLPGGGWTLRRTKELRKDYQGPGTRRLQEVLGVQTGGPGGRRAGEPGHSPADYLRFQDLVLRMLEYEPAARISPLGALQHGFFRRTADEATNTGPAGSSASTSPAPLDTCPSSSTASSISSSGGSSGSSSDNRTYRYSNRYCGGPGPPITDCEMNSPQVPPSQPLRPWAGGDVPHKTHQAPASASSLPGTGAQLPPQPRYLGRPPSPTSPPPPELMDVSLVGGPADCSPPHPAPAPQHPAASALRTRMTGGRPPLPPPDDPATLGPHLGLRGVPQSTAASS

Chain of Calcium/calmodulin-dependent protein kinase type 1 (Homo sapiens) (Q14012 whole entry, looked up): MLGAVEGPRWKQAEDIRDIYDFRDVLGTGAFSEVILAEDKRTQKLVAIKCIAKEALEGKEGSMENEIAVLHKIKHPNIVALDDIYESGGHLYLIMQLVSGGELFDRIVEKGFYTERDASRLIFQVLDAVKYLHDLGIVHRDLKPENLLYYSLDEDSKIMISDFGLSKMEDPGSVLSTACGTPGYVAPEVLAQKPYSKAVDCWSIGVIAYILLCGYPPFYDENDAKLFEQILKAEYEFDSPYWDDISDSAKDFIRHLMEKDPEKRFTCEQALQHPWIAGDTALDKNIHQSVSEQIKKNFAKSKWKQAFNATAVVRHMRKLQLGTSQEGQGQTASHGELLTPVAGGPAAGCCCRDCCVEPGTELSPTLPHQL
Chain of Phosphatidylinositol 4,5-bisphosphate 3-kinase catalytic subunit alpha isoform (Homo sapiens), P42336 [E545A] (P42336 whole entry E545A, canonical isoform): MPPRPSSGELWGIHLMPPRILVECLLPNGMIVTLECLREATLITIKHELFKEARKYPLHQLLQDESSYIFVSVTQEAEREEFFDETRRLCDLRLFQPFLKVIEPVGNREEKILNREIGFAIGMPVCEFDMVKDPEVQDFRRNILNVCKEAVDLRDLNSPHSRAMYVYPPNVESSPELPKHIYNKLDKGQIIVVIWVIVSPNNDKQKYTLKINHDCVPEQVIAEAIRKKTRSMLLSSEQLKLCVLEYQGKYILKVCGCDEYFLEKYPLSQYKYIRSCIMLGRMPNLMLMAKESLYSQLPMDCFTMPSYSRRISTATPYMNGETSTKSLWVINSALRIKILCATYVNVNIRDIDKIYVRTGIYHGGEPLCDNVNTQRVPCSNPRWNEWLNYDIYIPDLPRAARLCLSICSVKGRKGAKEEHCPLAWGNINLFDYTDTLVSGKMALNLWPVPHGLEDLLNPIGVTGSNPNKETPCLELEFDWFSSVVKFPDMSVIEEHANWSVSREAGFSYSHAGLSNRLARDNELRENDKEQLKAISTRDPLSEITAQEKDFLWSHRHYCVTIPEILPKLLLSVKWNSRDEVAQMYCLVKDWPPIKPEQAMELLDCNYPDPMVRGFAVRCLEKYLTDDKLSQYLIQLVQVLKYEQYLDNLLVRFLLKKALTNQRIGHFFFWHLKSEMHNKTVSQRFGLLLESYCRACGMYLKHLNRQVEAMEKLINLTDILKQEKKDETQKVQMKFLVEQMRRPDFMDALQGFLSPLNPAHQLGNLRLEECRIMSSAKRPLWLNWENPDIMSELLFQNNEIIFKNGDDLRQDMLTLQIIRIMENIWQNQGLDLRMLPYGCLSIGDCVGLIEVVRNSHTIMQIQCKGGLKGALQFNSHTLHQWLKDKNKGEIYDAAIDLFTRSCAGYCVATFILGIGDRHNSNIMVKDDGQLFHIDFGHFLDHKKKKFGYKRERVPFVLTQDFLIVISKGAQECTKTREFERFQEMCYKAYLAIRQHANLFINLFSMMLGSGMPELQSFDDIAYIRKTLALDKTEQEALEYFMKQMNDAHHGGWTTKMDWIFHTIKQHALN
Chain of Phosphatidylinositol 4,5-bisphosphate 3-kinase catalytic subunit alpha isoform (Homo sapiens), P42336 [E542K] (P42336 whole entry E542K, canonical isoform): as the sequence (P42336 whole entry E545A, canonical isoform) above, with E542K, A545E counted along it
Chain of MAP kinase-interacting serine/threonine-protein kinase 2 (Homo sapiens) (Q9HBH9 whole entry, looked up): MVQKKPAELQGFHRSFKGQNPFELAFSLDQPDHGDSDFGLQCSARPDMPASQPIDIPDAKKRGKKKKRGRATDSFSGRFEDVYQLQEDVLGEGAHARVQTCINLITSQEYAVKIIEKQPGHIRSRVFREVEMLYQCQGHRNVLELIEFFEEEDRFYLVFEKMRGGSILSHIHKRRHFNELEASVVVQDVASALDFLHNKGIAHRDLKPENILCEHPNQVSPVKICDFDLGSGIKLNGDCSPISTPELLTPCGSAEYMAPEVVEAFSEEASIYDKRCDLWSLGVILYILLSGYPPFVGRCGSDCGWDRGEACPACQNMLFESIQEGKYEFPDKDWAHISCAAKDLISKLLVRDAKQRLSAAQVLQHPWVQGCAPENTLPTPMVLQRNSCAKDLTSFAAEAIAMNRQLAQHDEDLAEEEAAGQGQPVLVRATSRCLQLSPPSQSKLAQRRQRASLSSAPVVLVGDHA

Consider `COc1cc2nc(C)nc(N[C@H](C)c3cccc(-c4cn[nH]c4)c3)c2cc1OC`, for which the Activity in [1] amounted to 73%; in experiment [2] it was 89%; in experiment [3] it was 89%; in experiment [4], 100%; in [5], 69%; in experiment [6], 78%. Also, the Activity was 100% in experiment [7]; 100% in [8]; 90% in experiment [9]; 45% in experiment [10]; 88% in [11]; 66% in experiment [12]. Besides, the Activity in [13] stood at 100%.
Regarding `COc1cc2ncnc(N[C@H](C)c3cccc4ccccc34)c2cc1OC`, the Activity turned out to be 100% in experiment [1]; 100% in experiment [2]; 91% in experiment [3]; 100% in experiment [4]; 82% in experiment [5]; 96% in experiment [6]. Besides, the Activity in experiment [7] worked out at 100%; in [8], 100%; in [9], 97%; in experiment [10], 99%; in [11], 3.2%; in experiment [12] it was 91%. Moreover, the Activity in experiment [13] stood at 50%.

The record behind these values is ChEMBL document CHEMBL5678818, “Discovery of potent SOS1 inhibitors that block RAS activation via disruption of the RAS-SOS1 interaction” (Proc Natl Acad Sci U S A, 2019).
